Data as given in patent US6046239A, “Anthranilic acid analogs” (American Home Products Corporation, priority 1998, dated 2000).

Key:
[1] = system: Isolated Rat Bladder Strips; experiment: Inhibition of contractions in isolated rat bladder strips; type: cell-based
Procedure: Sprague-Dawley rats (150-200 g) are rendered unconscious by CO2 asphyxiation and then euthanized by cervical dislocation. […] The bladder is opened and then cut into strips 1-2 mm in width and 7-10 mm in length. The strips are subsequently suspended in a 10 mL tissue bath under an initial resting tension of 1.5 g. The strips are held in place by two surgical clips one of which is attached to a fixed hook while the other is attached to an isometric force transducer. […] The carbachol is then washed out and the tissue allowed to relax to its resting level of activity. Following a further 30 min period of recovery an additional 15 mM KCl are introduced into the tissue bath. […] Following stabilization of this enhanced level of contractile activity, incremental increases in the concentration of test compound or vehicle are introduced into the tissue bath. Contractile activity is measured for each compound or vehicle concentration during the last minute of a 30 minute challenge.

[2] = biological target: T1, calcium-dependent large conductance potassium channels (maxi K^+) (Rattus norvegicus, UniProt Q62976); experiment: Potassium channel activation, whole cell patch clamp in isolated rat detrusor cells; type: cell-based; conditions: 10 μM in superfusate; isolated rat bladder cells
T1 construct: endogenous in cells; host or cells: freshly isolated rat detrusor (urinary bladder smooth muscle) cells
Procedure: Potassium channel activation by compounds of the present invention was established by examining the effect of the compound of Example 1 on calcium-dependent large conductance potassium channels (maxi K^+) as follows:
Rat detrusor cells were isolated in a manner previously described for guinea-pig detrusor (Sheldon and Argentieri, 1995). Male Sprague-Dawley rats (200-400 grams) were euthanized by CO2 inhalation and exsanguination. Their urinary bladders were rapidly removed and placed in 37° C. physiological solution with the following composition (mM): Na glutamate (80.0), NaCl (54.7), KCl (5.0), NaHCO3 (25.0), MgCl2.2H2 O (2.5), D-glucose (11.8) and CaCl2 (0.2) gassed with CO2 --O2, 95%/5% for a final pH of 7.4. The dome of the bladder was isolated from the trigon region and the mucosa was removed. This tissue was then cut into 2-3 mm wide strips and placed in fresh buffer for 1 hour. Tissues were then transferred into 10.0 ml of an isolation buffer containing the above composition plus collagenase type VIII (1.0 mg/ml) and pronase (0.25 mg/ml). After 10 minutes the isolation buffer was replaced with fresh isolation buffer for an additional 10 min. […]
Whole cell recordings were made using broken patch assess. […] After stability was achieved control currents were recorded. […] Currents were recorded for 5 to 10 minutes or until compound effects reached steady state. […]

[3] = system: swelling induced chloride channel current; experiment: Chloride channel blockade, swelling induced chloride current in bladder cells; type: cell-based, guinea pig; conditions: bladder cell, ICl type swelling (210 mOsm), 60 mV
Excerpt: Normal human bronchial epithelial cells (NHBE) were commercially available from Clonetics Corporation (San Diego, Calif.) and bladder cells were isolated from rat bladder.
The normal external solution contained (in mM): N-methyl d-Glucamine chloride (NMDGCl). 140, MgCl2 2, CaCl2 2 and 4-(2-hydroxyethyl)-1-piperazine ethanesulfonic acid (HEPES) 10. The normal pipette solution contained (in mM): NMDGCl. 125, HEPES 10, MgCl2 2, ethylenebis(oxonitrilo)tetaaacetate (EGTA) 2, and ATPMg 5, the pH adjusted to 7.3 with TRIS. To identify the leak conductance from depolarization, internal Cl ion concentration was reduced to 40 mM using glutamic acid (ECl approximately -31 mV according Nernst equation). The osmolarity for standard external solution was about 280 mOsm. Hypotonic solutions were obtained by diluting the normal external solution with distilled water.
The whole cell voltage clamp recording techniques were utilized to record membrane ionic currents. The volume of the recording chamber was 1 ml and the rate of superfusion was 4 ml/min. Membrane currents were recorded using an Axopatch 200A Patch Clamp Amplifier (Axon Instruments, Inc., Foster City, Calif.). Under voltage clamp conditions, the cells were stimulated at 0.2 Hz to be sure channels were completely recovered between two voltage steps. […]

Aorta = experiment: Inhibition of contractions in aorta (indication of selectivity); type: cell-based

T1 sequence (Q62976 whole entry): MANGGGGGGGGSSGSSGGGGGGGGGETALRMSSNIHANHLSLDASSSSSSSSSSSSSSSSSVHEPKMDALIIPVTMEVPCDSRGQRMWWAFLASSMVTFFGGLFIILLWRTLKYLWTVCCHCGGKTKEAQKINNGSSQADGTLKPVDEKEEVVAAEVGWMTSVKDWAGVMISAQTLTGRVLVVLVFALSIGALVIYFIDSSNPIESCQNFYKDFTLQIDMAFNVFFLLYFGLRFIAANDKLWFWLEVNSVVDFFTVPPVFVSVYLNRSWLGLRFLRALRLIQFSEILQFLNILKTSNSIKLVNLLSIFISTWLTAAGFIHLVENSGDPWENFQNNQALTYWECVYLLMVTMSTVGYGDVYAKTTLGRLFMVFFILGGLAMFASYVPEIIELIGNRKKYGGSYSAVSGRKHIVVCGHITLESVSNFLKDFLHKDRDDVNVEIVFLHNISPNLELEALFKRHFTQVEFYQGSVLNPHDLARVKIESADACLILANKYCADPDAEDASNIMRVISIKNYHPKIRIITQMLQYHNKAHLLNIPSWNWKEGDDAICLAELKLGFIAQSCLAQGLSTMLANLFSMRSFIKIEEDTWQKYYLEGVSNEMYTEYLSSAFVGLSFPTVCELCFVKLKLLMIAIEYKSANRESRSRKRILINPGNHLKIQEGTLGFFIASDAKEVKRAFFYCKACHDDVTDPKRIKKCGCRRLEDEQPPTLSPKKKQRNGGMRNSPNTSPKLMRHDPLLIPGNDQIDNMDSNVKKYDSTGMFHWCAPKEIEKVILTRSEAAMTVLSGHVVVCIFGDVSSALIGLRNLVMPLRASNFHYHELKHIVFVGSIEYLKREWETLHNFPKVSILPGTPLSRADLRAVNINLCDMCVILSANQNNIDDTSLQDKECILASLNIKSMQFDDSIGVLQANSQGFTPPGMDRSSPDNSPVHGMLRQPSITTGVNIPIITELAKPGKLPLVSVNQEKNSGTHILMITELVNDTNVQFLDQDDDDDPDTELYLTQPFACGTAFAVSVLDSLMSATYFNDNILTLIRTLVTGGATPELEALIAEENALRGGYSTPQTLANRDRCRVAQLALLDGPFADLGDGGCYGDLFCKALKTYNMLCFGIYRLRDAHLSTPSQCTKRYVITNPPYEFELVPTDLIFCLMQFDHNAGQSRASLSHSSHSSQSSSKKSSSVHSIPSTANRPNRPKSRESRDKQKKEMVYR
T1 sequence (P97678 whole entry partner): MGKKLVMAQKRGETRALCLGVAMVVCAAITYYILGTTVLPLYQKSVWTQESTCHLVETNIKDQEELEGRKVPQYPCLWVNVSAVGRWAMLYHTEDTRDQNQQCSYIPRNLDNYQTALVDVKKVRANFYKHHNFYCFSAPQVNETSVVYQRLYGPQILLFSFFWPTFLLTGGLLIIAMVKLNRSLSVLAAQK

C/C(=C\c1ccc(C(F)(F)F)cc1)C(=O)Nc1ccccc1C(=O)[O-].[Li+] [Example 1, Step 4, (E)-2-[2-Methyl-3-(4-trifluoromethyl-phenyl)-acryloylamino]-benzoic acid lithium salt]
IC50 ([1]; contractions enhanced by additional 15 mM KCl, isolated rat bladder strips, read-out: IC50 /μM Bladder (B)): 1.07 ± 0.37 µM | IC50 (A)/ IC50 (B) ([1]; ratio aorta/bladder, indication of selectivity): 39.6 | effect on outward current [2]: increase in outward current that was reversible upon washout | % blockade 20 μM [3]: 67% | IC50 (Aorta): 41.9 ± 8.4 µM
